Measurements from patent US20130131321A1, “LIGANDS FOR ANTIBODY AND Fc-FUSION PROTEIN PURIFICATION BY AFFINITY CHROMATOGRAPHY” (GRAFFINITY PHARMACEUTICALS GMBH, priority 2010, published 2013).

Columns and labels:
Bevacizumab [1] = target: T1, Bevacizumab (Homo sapiens, UniProt P01857); assay: Microtiter plate chromatography of resins, Bevacizumab whole IgG (bound, yield, selectivity); type: binding, humanized
T1 construct: fused on or other part: humanised anti-VEGF-A VH domain N-terminal of the gamma-1 constant region (engineered, no UniProt entry)

Tocilizumab = assay: Microtiter plate chromatography of resins, Tocilizumab (bound, yield); type: binding, humanized
host cell proteins (HCP) [2] = assay: Microtiter plate chromatography of resins, host cell proteins (bound); type: binding, CHO; conditions: estimate predicted on the basis of close analogs L49 and L50
Bevacizumab [3] = assay: Microtiter plate chromatography of resins, Bevacizumab whole IgG (bound, yield, selectivity); type: binding, humanized
Bevacizumab Fab fragment = assay: Microtiter plate chromatography of resins, Bevacizumab Fab fragment (bound); type: binding, humanized; conditions: for Bevacizumab Fab Bound (%): Bevacizumab Fab fragment
Protocol: (§1) Resins were assessed in packed mode by microtiter plate chromatography. For each column, approximately 30 μl of resin were transferred to a 384-well filter plate and sealed with appropriate top frits.
(§2) Columns were equilibrated with 6.7 column volumes (cv) of phosphate buffered saline (0.15 M NaCl, 20 mM sodium phosphate, pH 7.3; PBS) prior to injection. Either 3.3 cv of whole IgGs dissolved at 0.75 mg ml^−1, Fab or Fc fragments dissolved at 0.25 mg ml^−1 (all three in PBS) or host cell proteins (HCP) were injected onto columns. Antibody fragments of Bevacizumab (Fab and Fc) were prepared by cleavage of whole IgG with papain protease (3) according to the protocol of the manufacturer. […] Volumes transferred were spun through columns at 50 g for 1-2 min. During injection of samples, acceleration was reduced to 10 g and centrifugation time increased to 5-10 min. Effluent fractions were collected in 384-well plates and concentrations of protein analyzed by Bradford assay. Protein masses mi, mft and me (see below) were calculated as the product of fraction volume and measured protein concentration.
(§3) The fraction of ‘bound’ protein was calculated as the difference between the total mass of protein injected mi and the mass of protein detected in the flowthrough mft, divided by the total mass of protein injected.
(§4) the fraction of ‘bound’ protein and the ‘yield’ of protein were calculated for each resin based on data for whole IgG-antibodies. In the case of Bevacizumab fragments and host cell proteins, only the fraction of ‘bound’ protein is given. Selectivity of resins was calculated from data for Bevacizumab Whole IgG and host cell proteins. Due to limited experimental precision, selectivity was truncated beyond values of 10.

Bevacizumab Fc fragment = assay: Microtiter plate chromatography of resins, Bevacizumab Fc fragment (bound); type: binding, humanized; conditions: for Bevacizumab Fc Bound (%): Bevacizumab Fc fragment
Protocol: as §1, §2, §3, §4

host cell proteins (HCP) [4] = assay: Microtiter plate chromatography of resins, host cell proteins (bound); type: binding, CHO; conditions: host cell proteins
Palivizumab = assay: Microtiter plate chromatography of resins, Palivizumab (bound, yield); type: binding, humanized
[5] = tested on: human poly-IgG (h-poly-IgG); assay: Microtiter plate chromatography of resins, human poly-IgG (bound, yield); type: binding
Bevacizumab [6] = target: T1, Bevacizumab; assay: Langmuir isotherms by batch adsorption; type: binding, humanized; conditions: Bevacizumab in PBS pH 7.3, 25° C., at least 3 h; for Kd: read-out: Kd (dissociation constant, Langmuir isotherm)
Protocol: Experiments were performed with Bevacizumab as antibody. Parameters of Langmuir isotherms for purified antibody were determined by batch adsorption experiments in 96-well microtiter plates. In each well, 10 μl of sorbent slurry (50% v/v) were mixed with 100 μl of protein solution. Initial concentrations varied from 0.05-5 mg ml^−1 in phosphate-buffered saline (0.15 M NaCl, 20 mM phosphate buffer, pH 7.3; PBS). Reactions were agitated vigorously at 25° C. for at least 3 h. Afterwards, antibody concentration in the supernatents were measured by Bradford assay.
Parameters of Langmuir isotherms, i.e. dissociation constants Kd and maximum capacities qm, were determined from the measured concentrations in supernatants. Parameters were estimated by numerical fitting of the model equation derived by Chase (4).

[7] = estimate predicted on the basis of close analogs L49 and L50
[8] = fraction of whole IgG Bevacizumab bound to resin
[9] = mass of whole IgG Bevacizumab eluted / mass injected

| Bevacizumab IgG Bound (%) (Bevacizumab [1]; [7]) | Bevacizumab IgG Yield (%) (Bevacizumab [1]; [7]) | Compound | Tocilizumab Bound (%) (Tocilizumab) | Tocilizumab Yield (%) (Tocilizumab) | HCP Bound (%) (host cell proteins (HCP) [2]) | Bevacizumab IgG Bound (%) (Bevacizumab [1]; [8]) | Bevacizumab IgG Yield (%) (Bevacizumab [1]; [9]) | Selectivity (Bevacizumab [3]) | Bevacizumab Fab Bound (%) (Bevacizumab Fab fragment) | Bevacizumab Fc Bound (%) (Bevacizumab Fc fragment) | HCP Bound (%) (host cell proteins (HCP) [4]) | Palivizumab Bound (%) (Palivizumab) | Palivizumab Yield (%) (Palivizumab) | h-poly-IgG Bound (%) [5] [%] | h-poly-IgG Yield (%) [5] [%] | qm (maximum capacity, Langmuir isotherm) (Bevacizumab [6]) [mg per ml resin] | Kd (Bevacizumab [6]) [µM] | binding of Bevacizumab Fab-fragment (Bevacizumab Fab fragment; Fab 0.25 mg ml^-1 in PBS) | binding of Bevacizumab Fc-fragment (Bevacizumab Fc fragment; Fc 0.25 mg ml^-1 in PBS) |
| --- | --- | --- | --- | --- | --- | --- | --- | --- | --- | --- | --- | --- | --- | --- | --- | --- | --- | --- | --- |
| >95 | >85 | COc1ccc(NC(=O)c2cn3ccsc3n2)cc1C(=O)NCCOCC(=O)NCCCC[C@H](NC(=O)COCCNC(=O)c1cc(NC(=O)c2cn3ccsc3n2)ccc1OC)C(=O)NCCCN [Ligand L53, (S)-2,6-Bis{5-[5-(Imidazo[2,1-b]thiazol-6-ylcarboxamido)-2-methoxyphenylcarboxamido]-3-oxapentanoylamido}hexanoic acid (3-amino-1-propyl)amide] | >90 | >90 | <20 | – | – | – | – | – | – | – | – | – | – | – | – | – | – |
| – | – | COc1ccc(NC(=O)c2cc(-c3cc(Br)cs3)n(C)n2)cc1C(=O)NCCCN [Ligand L2, 5-[5-(4-Bromo-2-thienyl)-1-methylpyrazol-3-yl]carboxamido-2-methoxybenzoic acid N-(3-aminopropyl)amide] | 100 | 91 | – | 100 | 96 | 1.7 | 100 | 100 | 59 | – | – | – | – | – | – | – | – |
| – | – | COc1ccc(NC(=O)c2cncc(-c3cccs3)c2)cc1C(=O)NCCCN [Ligand L5, 2-Methoxy-5-[3-(2-thienyl)pyridin-5-yl]carboxamidobenzoic acid N-(3-aminopropyl)amide] | 100 | 80 | – | 100 | 96 | 2.0 | 77 | 84 | 48 | 71 | 72 | 97 | 69 | – | – | – | – |
| – | – | COc1ccc(NC(=O)c2cc(-c3ccsc3)n(C)n2)cc1C(=O)NCCCN [Ligand L8, 2-Methoxy-5-[1-methyl-5-(3-thienyl)pyrazol-3-yl]carboxamidobenzoic acid N-(3-aminopropyl)amide] | 100 | 97 | – | 100 | 96 | 2.3 | 82 | 99 | 44 | 100 | 89 | 100 | 86 | – | – | – | – |
| – | – | C#Cc1cncc(C(=O)Nc2ccc(OC)c(C(=O)NCCCN)c2)c1 [Ligand L24, 5-(3-Ethynylpyridin-5-yl)carboxamido-2-methoxybenzoic acid N-(3-aminopropyl)amide] | 41 | 40 | – | 100 | 97 | – | – | – | 29 | 24 | 21 | 45 | 47 | 33 | 596 | – | – |
| – | – | COc1ccc(NC(=O)c2cncc(C3CC3)c2)cc1C(=O)NCCCN [Ligand L23, 5-(3-Cyclopropylpyridin-5-yl)carboxamido-2-methoxybenzoic acid N-(3-aminopropyl)amide] | 86 | 85 | – | 100 | 98 | – | 12 | 67 | 32 | 61 | 57 | 75 | 74 | 33 | – | – | – |
| – | – | COc1ccc(NC(=O)c2n[nH]c3ccc(Cl)cc23)cc1C(=O)NCCCN [Ligand L4, 5-(5-Chloro-1H-indazol-3-yl)carboxamido-2-methoxybenzoic acid N-(3-aminopropyl)amide] | 100 | 93 | – | 100 | 98 | 1.8 | 38 | 100 | 57 | 100 | 97 | 100 | 83 | – | – | – | – |
| – | – | Cn1nc(C(=O)Nc2cccc(C(=O)NCCCN)c2)cc1-c1ccco1 [Ligand L17, 3-[5-(2-Furyl)-1-methylpyrazol-3-yl]carboxamidobenzoic acid N-(3-aminopropyl)amide] | 97 | 89 | – | 100 | 94 | – | – | – | 36 | 81 | 70 | 91 | 87 | 26 | – | – | – |
| – | – | COc1ccc(NC(=O)c2cncc(-c3ccoc3)c2)cc1C(=O)NCCCN [Ligand L22, 5-[3-(3-Furyl)pyridin-5-yl]carboxamido-2-methoxybenzoic acid N-(3-aminopropyl)amide] | 62 | 58 | – | 100 | 92 | – | – | – | 33 | 40 | 34 | 63 | 58 | 29 | 373 | – | – |
| – | – | COc1ccc(NC(=O)c2nn(C)c3ccccc23)cc1C(=O)NCCCN [Ligand L27, 2-Methoxy-5-(1-methylindazol-3-yl)carboxamidobenzoic acid N-(3-aminopropyl)amide] | 100 | 104 | – | 100 | 94 | – | 6 | 96 | 35 | 100 | 94 | 98 | 89 | 33 | – | not the Fab-fragment | bound the Fc-fragment |
| – | – | COc1ccc(NC(=O)c2cncc(-c3ccco3)c2)cc1C(=O)NCCCN [Ligand L13, 5-[3-(2-Furyl)pyridin-5-yl]carboxamido-2-methoxybenzoic acid N-(3-aminopropyl)amide] | 91 | 79 | – | 100 | 94 | – | 9 | 64 | 38 | 65 | 58 | 76 | 75 | 37 | 411 | – | – |
| – | – | COc1ccc(NC(=O)c2cc(-c3cccs3)n(C)n2)cc1C(=O)NCCCN [Ligand L6, 2-Methoxy-5-[1-methyl-5-(2-thienyl)pyrazol-3-yl]carboxamidobenzoic acid N-(3-aminopropyl)amide] | 100 | 102 | – | 100 | 100 | 2.0 | 79 | 100 | 54 | 98 | 100 | 94 | 100 | – | – | – | – |
